Experimental data from patent US8304427B2, “Acylthiourea compound or salt thereof, and use thereof” (Taiho Pharmaceutical Co., Ltd., priority 2008, dated 2012).
pIC50: −log10 of the molar value. Read-outs that look alike come from different tables or passages of the source. Values belong to the molecule of their own block, whether it stands above or below them.

Key:
[1] = test system: NUGC4 cells; assay: Cell-proliferation inhibitory assay against NUGC4 cells (Crystal Violet); format: cell-based; conditions: Homo sapiens, NUGC-4, 72 h; NUGC4, cancer, c-Met status (+), 3 days
Method: Cell-Proliferation Inhibitory Assay Against NUGC4 Cells (Human Gastric Cancer Cell Strain in Which c-Met is Over-Expressed and Highly Activated), In Vitro Test
NUGC4 cell suspension (in a 10% FBS-containing RPMI 1640 medium (product of Wako Pure Chemical Industries Ltd.) or a FBS-containing DMEM medium (product of Nacalai Tesque, Inc.)) was inoculated to each well of a 96-well (flat-bottom) microplate in an amount of 2×10^3 cells (0.1 mL), and the plate was incubated in an incubator under 5% CO2 gas atmosphere at 37° C. for one day. Each of the compounds of the present invention and comparative compound 1 was dissolved in dimethyl sulfoxide to a concentration of 30 mM. The solution was diluted with 10% FBS-containing RPMI 1640 or DMEM medium, to a final test compound concentration of 60, 20, 6, 2, 0.6, or 0.2 μM. The thus-prepared test compound solution was added to each well of the NUGC4 cell culture plate at 0.1 mL/well, and the plate was incubated in an incubator under 5% CO2 gas atmosphere at 37° C. for 3 days. After culturing, 25% aqueous glutaraldehyde solution (product of Nacalai Tesque, Inc.) was added to each well at 20 μL, and the plate was left to stand at room temperature for 20 minutes, whereby cells were fixed. Thereafter, the plate was washed with tap water and dried. Then, aqueous 0.05% Crystal Violet/20% methanol solution (product of Wako Pure Chemical Industries Ltd.) was added to each well at 100 μL/well, and the plate was left to stand at room temperature for 20 minutes, whereby cells were stained. Thereafter, the plate was washed with tap water and dried. To each well, 0.05 M NaH2PO4/ethanol (1/1=v/v) (100 μL) was added, to thereby extract Crystal Violet. The absorbance of the extracted Crystal Violet was measured at 540 nm using a microplate reader, and the absorbance was employed as an index for living cell count. Percent inhibition was calculated by the following equation, and the 50% inhibition test compound concentration (IC50 (μM)) was calculated. Percent inhibition (%)=(C−T)/C×100 • T: Absorbance of well to which a test compound was added • C: Absorbance of well to which no test compound was added

[2] = test system: HMEC (human skin microvascular endothelial cell); assay: Cell proliferation inhibition test against normal cells HMEC; format: cell-based; conditions: for pIC50: Homo sapiens, 72 h, HMEC, normal, c-Met status (−), 3 days, read-out: IC50 HMEC; for ratio HMEC: IC50 HMEC relative to IC50 NUGC4
Method: [Worded in the source for another cell line; this cell line is reported under the same test.] (§1) The thus-prepared test compound solution was added to each well of the NUGC4 cell culture plate at 0.1 mL/well, and the plate was incubated in an incubator under 5% CO2 gas atmosphere at 37° C. for 3 days. […] Thereafter, the plate was washed with tap water and dried. Then, aqueous 0.05% Crystal Violet/20% methanol solution (product of Wako Pure Chemical Industries Ltd.) was added to each well at 100 μL/well, and the plate was left to stand at room temperature for 20 minutes, whereby cells were stained. Thereafter, the plate was washed with tap water and dried. To each well, 0.05 M NaH2PO4/ethanol (1/1=v/v) (100 μL) was added, to thereby extract Crystal Violet. The absorbance of the extracted Crystal Violet was measured at 540 nm using a microplate reader, and the absorbance was employed as an index for living cell count. […] Percent inhibition (%)=(C−T)/C×100 • T: Absorbance of well to which a test compound was added • C: Absorbance of well to which no test compound was added

[3] = target: T1, c-Met (Homo sapiens, UniProt P08581); assay: c-Met inhibitory assay using AlphaScreen (Method A); format: biochemical; parameters: purchased Carna bio Co., Ltd 08-051; conditions: ATP 20 μM
Method: Inhibitory activity of compounds against c-Met kinase was determined through the following procedures. Method A) c-Met inhibitory assay using AlphaScreen™
A biotinylated peptide including a phosphorylated site of Pyk2 (Tyr402), which is reported as a bio-substrate in Clin. Cancer Res. vol. […] The mixture was allowed to react at room temperature for 20 minutes. EDTA was added to the reaction mixture to a final concentration of 50 mM, to thereby terminate reaction. […] The reaction was done for one hour at room temperature. Thereafter, the fluorescence intensity from the reaction mixture was measured using a multi-label counter (EnVision™, Perkin Elmer).
Target sequence in this assay (P08581 956-1390 limits assumed): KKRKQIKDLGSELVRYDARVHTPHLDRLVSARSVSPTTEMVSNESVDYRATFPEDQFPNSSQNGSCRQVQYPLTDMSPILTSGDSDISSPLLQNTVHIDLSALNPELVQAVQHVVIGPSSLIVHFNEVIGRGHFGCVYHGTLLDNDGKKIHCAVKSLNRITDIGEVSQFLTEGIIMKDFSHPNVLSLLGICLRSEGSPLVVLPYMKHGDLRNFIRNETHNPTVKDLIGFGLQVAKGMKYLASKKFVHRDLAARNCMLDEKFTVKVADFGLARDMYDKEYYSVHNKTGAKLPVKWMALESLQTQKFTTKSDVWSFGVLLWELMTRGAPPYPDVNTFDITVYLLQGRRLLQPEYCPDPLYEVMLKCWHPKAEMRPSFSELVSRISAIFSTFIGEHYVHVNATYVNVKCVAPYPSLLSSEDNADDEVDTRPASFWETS

[4] = test system: HCT-116; assay: Cell proliferation inhibition test against c-Met low expressing tumor cells (HCT-116); format: cell-based; conditions: for pIC50: Homo sapiens, read-out: IC50 HCT-116; for ratio HCT-116: IC50 HCT-116 relative to IC50 NUGC4
[5] = test system: HAOSMC (human aortic smooth muscle cell); assay: Cell proliferation inhibition test against normal cells HAOSMC; format: cell-based; conditions: for pIC50: Homo sapiens, 72 h, HAOSMC, normal, c-Met status (−), 3 days, read-out: IC50 HAOSMC; for ratio HAOSMC: IC50 HAOSMC relative to IC50 NUGC4
Method: [Worded in the source for another cell line; this cell line is reported under the same test.] as §1

[6] = target: T1, c-Met; assay: c-Met inhibitory assay using DeskTop Profiler (Method B); format: biochemical; parameters: made in house; conditions: ATP 43 μM
Method: Method B) c-Met Inhibitory Assay Using DeskTop Profiler
A dephosphorylation enzyme inhibitor cocktail (PhosSTOP, #4906837, product of Roche) and a protease inhibitor cocktail (Complete, Mini, EDTA-free, #1836170; product of Roche) were added to a reaction buffer (100 mM HEPES (pH: 7.5), 10 mM MgCl2, 0.003% Brij-35, 0.04% Tween, and 1 mM DTT). In the presence of the compound of the present invention, recombinant c-Met (purified product of Taiho Pharmaceutical Co., Ltd.), fluorescence-labeled c-Met substrate peptide (FL-Peptide 2, #760346, Caliper Life Sciences) (final concentration: 1.5 μM), and ATP (final concentration: 43 μM) were added thereto, and the mixture was allowed to react at 28° C. for 90 minutes. EDTA was added to the reaction mixture to a final concentration of 10 mM, to thereby terminate reaction. By use of DeskTop Profiler (#119900, Caliper Life Sciences), each fluorescence intensity of the substrate and that of the phosphorylated product was determined, whereby the amount of the formed phosphorylated product was determined. The compound concentration that realizes 50% inhibition of formation of phosphorylated product was defined as IC50 (μM), and the results are shown in the following Tables.
Target sequence in this assay (P08581 25-1390): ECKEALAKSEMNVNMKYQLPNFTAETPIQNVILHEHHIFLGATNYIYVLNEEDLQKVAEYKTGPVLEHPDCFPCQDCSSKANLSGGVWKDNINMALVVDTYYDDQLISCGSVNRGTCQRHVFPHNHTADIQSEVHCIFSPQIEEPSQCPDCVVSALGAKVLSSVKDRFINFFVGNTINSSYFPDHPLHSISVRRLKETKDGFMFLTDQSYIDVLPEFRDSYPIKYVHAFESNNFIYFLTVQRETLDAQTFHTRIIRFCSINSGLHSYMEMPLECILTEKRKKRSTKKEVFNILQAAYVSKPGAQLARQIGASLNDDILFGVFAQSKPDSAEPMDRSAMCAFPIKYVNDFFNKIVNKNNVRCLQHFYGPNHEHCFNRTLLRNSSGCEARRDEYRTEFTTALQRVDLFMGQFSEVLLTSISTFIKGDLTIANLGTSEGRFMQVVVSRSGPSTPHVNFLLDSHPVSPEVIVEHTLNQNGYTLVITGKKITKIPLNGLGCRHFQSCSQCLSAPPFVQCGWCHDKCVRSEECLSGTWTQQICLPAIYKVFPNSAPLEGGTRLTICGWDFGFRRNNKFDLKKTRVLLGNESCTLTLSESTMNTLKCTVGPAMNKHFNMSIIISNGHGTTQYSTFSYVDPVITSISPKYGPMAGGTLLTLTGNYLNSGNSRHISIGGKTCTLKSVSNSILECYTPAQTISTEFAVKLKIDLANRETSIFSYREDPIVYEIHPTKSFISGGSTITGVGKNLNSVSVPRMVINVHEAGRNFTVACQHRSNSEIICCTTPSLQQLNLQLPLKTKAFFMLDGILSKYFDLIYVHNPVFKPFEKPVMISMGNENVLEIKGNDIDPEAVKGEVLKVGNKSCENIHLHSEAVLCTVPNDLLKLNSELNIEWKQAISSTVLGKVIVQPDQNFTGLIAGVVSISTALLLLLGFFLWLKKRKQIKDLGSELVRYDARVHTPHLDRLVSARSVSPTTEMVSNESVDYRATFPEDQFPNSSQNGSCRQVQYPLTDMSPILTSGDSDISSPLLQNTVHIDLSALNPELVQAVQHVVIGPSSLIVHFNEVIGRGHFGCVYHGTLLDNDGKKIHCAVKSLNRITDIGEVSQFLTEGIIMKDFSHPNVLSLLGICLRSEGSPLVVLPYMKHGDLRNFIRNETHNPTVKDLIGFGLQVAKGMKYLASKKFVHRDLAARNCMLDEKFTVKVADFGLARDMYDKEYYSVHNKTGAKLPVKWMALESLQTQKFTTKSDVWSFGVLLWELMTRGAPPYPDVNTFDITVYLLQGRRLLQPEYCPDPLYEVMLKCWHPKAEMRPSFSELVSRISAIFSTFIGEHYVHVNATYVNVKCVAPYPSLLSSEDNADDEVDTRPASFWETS

[7] = 72 h, HCT-116, cancer, c-Met status (−), 3 days

pIC50 [6]: 7.47
SMILES: CC[C@@H](CO)NC(=O)c1cc2c(Oc3ccc(NC(=S)NC(=O)Cc4cccc(F)c4)cc3F)ccnc2cc1OC [Example 41, (S)-4-(2-Fluoro-4-(3-(2-(3-fluorophenyl)acetyl)thioureido)phenoxy)-N-(1-hydroxybutan-2-yl)-7-methoxyquinoline-6-carboxamide]

pIC50 [6]: 7.35
SMILES: COc1cc2nccc(Oc3ccc(NC(=S)NC(=O)Cc4ccc(Cl)cc4)cc3F)c2cc1C(=O)NCC(C)(C)O [Example 42, 4-(4-(3-(2-(4-Chlorophenyl)acetyl)thioureido)-2-fluorophenoxy)-N-(2-hydroxy-2-methylpropyl)-7-methoxyquinoline-6-carboxamide]

pIC50 [6]: 7.07
SMILES: CNC(=O)c1cc2c(Oc3ccc(NC(=S)NC(=O)Cc4cccc(OC)c4)cc3F)ccnc2cc1OC [Example 46, 4-(2-Fluoro-4-(3-(2-(3-methoxyphenyl)acetyl)thioureido)phenoxy)-7-methoxy-N-methylquinoline-6-carboxamide]

pIC50 [6]: 6.69
SMILES: CNC(=O)c1cc2c(Oc3ccc(NC(=S)NC(=O)Cc4ccc(C(F)(F)F)cc4)cc3F)ccnc2cc1OC [Example 47, 4-(2-Fluoro-4-(3-(2-(4-trifluoromethylphenyl)acetyl)thioureido)phenoxy)-7-methoxy-N-methylquinoline-6-carboxamide]

pIC50 [6]: 7.47
SMILES: CNC(=O)c1cc2c(Oc3ccc(NC(=S)NC(=O)Cc4ccccc4)cc3Cl)ccnc2cc1OC [Example 48, 4-(2-Chloro-4-(3-(2-phenylacetyl)thioureido)phenoxy)-7-methoxy-N-methylquinoline-6-carboxamide]

pIC50 [6]: 6.86
SMILES: COc1cc2nccc(Oc3ccc(NC(=S)NC(=O)Cc4ccccc4)cc3F)c2cc1C(=O)N(C)C [Example 50, 4-(2-Fluoro-4-(3-(2-phenylacetyl)thioureido)phenoxy)-7-methoxy-N,N-dimethylquinoline-6-carboxamide]

The remaining lines, values behind:

SMILES: COc1cc2nccc(Oc3ccc(NC(=S)NC(=O)Cc4ccccc4)cc3F)c2cc1C(=O)NCCCN1CCCC1=O [Example 5, 4-(2-Fluoro-4-(3-(2-phenylacetyl)thioureido)phenoxy)-7-methoxy-N-(3-(2-oxopyrrolidin-1-yl)propyl)quinoline-6-carboxamide]
pIC50 [1]: 7.52 | pIC50 [2]: 4.64 | ratio HMEC [2]: 681 | pIC50 [3]: 6.94 | pIC50 [4, 7]: 4.54 | ratio HCT-116 [4]: 857 | pIC50 [5]: < 4.52 | ratio HAOSMC [5]: >879

SMILES: CCNC(=O)N1CCC(NC(=O)c2cc3c(Oc4ccc(NC(=S)NC(=O)Cc5ccccc5)cc4F)ccnc3cc2OC)CC1 [Example 15, N-(1-(Ethylcarbamoyl)piperidin-4-yl)-4-(2-fluoro-4-(3-(2-phenylacetyl)thioureido)phenoxy)-7-methoxyquinoline-6-carboxamide]
pIC50 [1]: 7.70 | pIC50 [2]: < 4.52 | ratio HMEC [2]: >1584 | pIC50 [3]: 6.86 | pIC50 [4, 7]: < 4.52 | ratio HCT-116 [4]: >1584 | pIC50 [5]: < 4.52 | ratio HAOSMC [5]: >1584

SMILES: COc1cc2nccc(Oc3ccc(NC(=S)NC(=O)Cc4ccccc4)cc3F)c2cc1C(=O)NCC(=O)N1CCC[C@H]1CO [Example 34, (S)-4-(2-Fluoro-4-(3-(2-phenylacetyl)thioureido)phenoxy)-N-(2-(2-(hydroxymethyl)pyrrolidin-1-yl)-2-oxoethyl)-7-methoxyquinoline-6-carboxamide]
pIC50 [1]: 7.70 | pIC50 [6]: 7.66 | pIC50 [4, 7]: < 4.52 | ratio HCT-116 [4]: >2000

SMILES: COc1cc2nccc(Oc3ccc(NC(=S)NC(=O)Cc4ccc(F)cc4)cc3F)c2cc1C(=O)NCCN1CCOCC1 [Example 37, 4-(2-fluoro-4-(3-(2-(4-fluorophenyl)acetyl)thioureido)phenoxy)-7-methoxy-N-(2-morpholinoethyl)quinoline-6-carboxamide]
pIC50 [1]: 8.00 | pIC50 [6]: 7.46 | pIC50 [4, 7]: < 4.52 | ratio HCT-116 [4]: >3000

SMILES: CC[C@@H](CO)NC(=O)c1cc2c(Oc3ccc(NC(=S)NC(=O)Cc4ccc(F)cc4)cc3F)ccnc2cc1OC [Example 38, (S)-4-(2-Fluoro-4-(3-(2-(4-fluorophenyl)acetyl)thioureido)phenoxy)-N-(1-hydroxybutan-2-yl)-7-methoxyquinoline-6-carboxamide]
pIC50 [1]: 7.40 | pIC50 [6]: 7.49 | pIC50 ([4]; HCT-116, 72 h): < 4.52 | ratio HCT-116 [4]: >719

SMILES: COc1cc2nccc(Oc3ccc(NC(=S)NC(=O)Cc4ccccc4F)cc3F)c2cc1C(=O)NCC(C)(C)O [Example 39, 4-(2-Fluoro-4-(3-(2-(2-fluorophenyl)acetyl)thioureido)phenoxy)-N-(2-hydroxy-2-methylpropyl)-7-methoxyquinoline-6-carboxamide]
pIC50 [6]: 7.54

SMILES: CC[C@@H](CO)NC(=O)c1cc2c(Oc3ccc(NC(=S)NC(=O)Cc4ccccc4F)cc3F)ccnc2cc1OC [Example 40, (S)-4-(2-Fluoro-4-(3-(2-(2-fluorophenyl)acetyl)thioureido)phenoxy)-N-(1-hydroxybutan-2-yl)-7-methoxyquinoline-6-carboxamide]
pIC50 [6]: 7.57

SMILES: CC[C@@H](CO)NC(=O)c1cc2c(Oc3ccc(NC(=S)NC(=O)Cc4ccc(Cl)cc4)cc3F)ccnc2cc1OC [Example 43, (S)-4-(4-(3-(2-(4-Chlorophenyl)acetyl)thioureido)-2-fluorophenoxy)-N-(1-hydroxybutan-2-yl)-7-methoxyquinoline-6-carboxamide]
pIC50 [6]: 7.30

SMILES: COc1cc2nccc(Oc3ccc(NC(=S)NC(=O)Cc4c(F)cccc4F)cc3F)c2cc1C(=O)NCCN1CCOCC1 [Example 44]
pIC50 [6]: 7.00

SMILES: COc1cc2nccc(Oc3ccc(NC(=S)NC(=O)Cc4c(F)cccc4F)cc3F)c2cc1C(=O)NCC(C)(C)O [Example 45]
pIC50 [6]: 7.25

SMILES: CNC(=O)c1cc2c(Oc3ccc(NC(=S)NC(=O)Cc4ccccc4)c(F)c3)ccnc2cc1OC [Example 49, 4-(3-Fluoro-4-(3-(2-phenylacetyl)thioureido)phenoxy)-7-methoxy-N-methylquinoline-6-carboxamide]
pIC50 [6]: 7.21
